Molecular target: T1, human DNA polymerase γ (Homo sapiens, UniProt P54098)
T1 construct: purchased Roboklon
T1 sequence (P54098 1-1239): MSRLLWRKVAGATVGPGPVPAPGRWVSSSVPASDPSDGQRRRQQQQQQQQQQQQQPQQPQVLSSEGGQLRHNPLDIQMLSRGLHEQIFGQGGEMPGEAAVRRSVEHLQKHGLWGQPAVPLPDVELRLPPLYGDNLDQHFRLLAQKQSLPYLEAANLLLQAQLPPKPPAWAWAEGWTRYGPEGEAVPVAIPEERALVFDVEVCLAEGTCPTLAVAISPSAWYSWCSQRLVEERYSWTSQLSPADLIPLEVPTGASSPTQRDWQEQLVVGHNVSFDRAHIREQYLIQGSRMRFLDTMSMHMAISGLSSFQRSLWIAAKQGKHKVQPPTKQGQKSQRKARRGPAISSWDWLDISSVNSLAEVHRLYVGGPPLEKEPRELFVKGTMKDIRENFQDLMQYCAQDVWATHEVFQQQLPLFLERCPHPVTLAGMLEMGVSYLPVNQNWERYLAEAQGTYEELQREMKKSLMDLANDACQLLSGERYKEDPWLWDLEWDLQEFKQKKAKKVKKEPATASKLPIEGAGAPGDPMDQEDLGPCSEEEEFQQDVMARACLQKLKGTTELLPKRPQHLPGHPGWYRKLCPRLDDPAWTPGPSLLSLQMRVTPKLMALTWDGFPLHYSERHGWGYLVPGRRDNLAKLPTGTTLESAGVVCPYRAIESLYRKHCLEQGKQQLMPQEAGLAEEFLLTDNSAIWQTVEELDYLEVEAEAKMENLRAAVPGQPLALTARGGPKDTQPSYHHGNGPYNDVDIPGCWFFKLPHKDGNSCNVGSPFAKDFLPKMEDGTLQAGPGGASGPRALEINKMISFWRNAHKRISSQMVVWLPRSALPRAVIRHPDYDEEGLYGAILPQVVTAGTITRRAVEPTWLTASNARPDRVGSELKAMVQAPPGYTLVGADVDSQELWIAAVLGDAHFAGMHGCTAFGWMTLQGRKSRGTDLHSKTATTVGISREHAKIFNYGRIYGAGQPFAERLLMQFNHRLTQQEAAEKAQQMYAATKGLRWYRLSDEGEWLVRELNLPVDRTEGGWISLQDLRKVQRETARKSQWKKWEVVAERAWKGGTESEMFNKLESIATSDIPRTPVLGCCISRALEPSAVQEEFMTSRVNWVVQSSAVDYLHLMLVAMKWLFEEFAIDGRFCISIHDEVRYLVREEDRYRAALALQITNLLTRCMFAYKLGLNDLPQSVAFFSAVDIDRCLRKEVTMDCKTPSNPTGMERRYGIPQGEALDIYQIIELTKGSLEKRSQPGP
Test: Primer extension assay with human DNA polymerase γ
Format: biochemical
Conditions: dNTPs 250 μM, Pol γ 4 U
Protocol: Two different set‐ups have been used. First, a mixture of dATP, dCTP, dGTP, and γ‐alkyl‐TTP (N*) or ‐d4TTP (T*) was used as a mixture. The results obtained from these experiments were compared to those in which just γ‐alkyl‐TTP (N) or d4TTP (T) was used. In each experiment a primer extension without added polymerase (negative control, ‐ lane) and an experiment in which all four canonical NTPs were added (positive control, +lane) were used as controls.
Anti-HIV activity assay: Inhibition of HIV-1(IIIB)- and HIV-2(ROD)-induced cytopathicity in wild-type CEM/0 and thymidine kinase-deficient CEM/TK- cell cultures was measured in microtiter 96-well plates containing ~3·105 CEM cells/mL infected with 100 CCID50 of HIV per milliliter and containing appropriate dilutions of the test compounds. After 4−5 days of incubation at 37 °C in a CO2-controlled humidified atmosphere, CEM giant (syncytium) cell formation was examined microscopically. The EC50 (50% effective concentration) was defined as the compound concentration required to inhibit HIV-induced giant cell formation by 50%. […]
2) For HIV- RT assay: The final assay solution (10 µL) consists of 50 mM Tris-HCl (pH 8.6 at 22 °C), 10 mM MgCl2, 40mM KCl, dNTPs 66 µM, HIV RT 6 U, Hybrid 0.32 µM in a reaction volume of 10 µL, incubated 37 °C for 15 min, 80 °C for 3 min; 50 mA, 45w for 4 h. […] The result was visualized by fluorescence imaging. […]

## Cc1cn(C2C=CC(COP(=O)(O)OP(=O)(O)OP(=O)(O)O)O2)c(=O)[nH]c1=O (stereo not shown) [2 t, d4TTP, reference compound]
  primer extension by DNA polymerase γ (substrate properties): not substrates
